Assay results reported in patent US9999614B2, “Combination for the prophylaxis and treatment of behavioural, mental, and cognitive disorders” (LTD “VALENTA-INTELLEKT”, priority 2012, dated 2018).

Experiments:
[1] = tested on: amnesia in mice, as caused by electroconvulsive shock (ECS); test: Conditioned passive avoidance reflex (CPAR), amnesia caused by electroconvulsive shock (ECS); format: in vivo; details: for Latent time of entering into the dark chamber / Number of mice not entered into the dark chamber, % / Number of mice taught to CPAR: + ECS, i.p. once a day for 5 days, Melatonin 5 mg, Memantin 10 mg mono-use; for Number of mice taught to CPAR: count of mice, human doses converted to mice; for Effect on the amnestic action of ECS (in words): summary of Tables 1-2, p<0.05 for the compositions
Experimental: (§1) For this, the active substances Melatonin 3 mg/Memantin 10 mg, Melatonin 5 mg/Memantin 20 mg, Melatonin 10 mg/Memantin 20 mg were taken, and doses recommended for human beings were converted into doses adapted for mice according to the formula “(active substance/70(average weight of a human being))×7”. Then the compositions were dissolved in 5 mL of the solution and, according to the given formula, introduced to animals intraperitoneally once a day for 5 days.
The action of the compositions on learning and memory factors were studied on white non-linear male mice having a weight 20+/−4 g, using the conditioned passive avoidance reflex (CPAR) of electroconvulsive shock (ECS) (Ya. Buresh et al., 1991; K. M. Dyumaev et al., 1995).
Electroconvulsive shock (ECS) was used as the amnesic action, the electric current parameters were: 50 Hz, 50 mA, 0.3 s, which was applied to mice with the use of electrodes in the shape of clips fixed on auricles, transpineally, just after teaching CPAR (see, “Manual for Experimental (Pre-Clinical) Studies of New Pharmacological Substances”, 2000). Pseudo-electroconvulsive shock was caused to the animals by applying pineal electrodes for causing ECS without applying electric current. The mice were tested for maintaining CPAR in certain time intervals after ECS.
The CPAR test is the main model for evaluating substance influences on formation and replication of short-time memory in a normal condition and in an abnormal condition, i.e., induced amnesia. The CPAR is the most informative method among the methods that are used today for evaluating efficiency of substances with influence on the CNS of mammals (see, “Manual for Experimental (Pre-Clinical) Studies of New Pharmacological Substances”, 2000). The CPAR (conditioned passive avoidance reflex in a dark, light chamber) was taught to the mice on the basis of electrodermal response according to the method proposed by Cumin et al. (1982) with due regard to the recommendations given by Mondadori et al. (1990). The installation for mice, as produced by Lafayette Instrument Co., USA, was a black chamber with the electrode floor and a white plastic platform that was arranged on the floor in the center of the chamber. The mice, one by one, were put onto the plastic platform. The animals went/jumped down onto the electrode floor where they received an electric current shock, i.e., punishment. Electric current was supplied after the time when an animal stood on the floor with all its four legs. The natural response of the animals is to go back to the current-free or safe platform. After several minutes of teaching, 5 minutes on the average, mice developed CPAR and remained on the safe platform. Tests for memorizing CPAR were conducted in successive time intervals after amnesic action. In a case where an animal went/jumped down onto the platform within 1 minute, it was recorded as having retrograde amnesia of the passive avoidance skill. The compositions were studied in comparison with Melatonin 5 mg (mono-use) and Memantin 10 mg (mono-use), according to the above formula for adapting to animal models.

[2] = tested on: amnesia in mice, as caused by scopolamine; test: CPAR, model of amnesia caused by scopolamine; format: in vivo; details: for Latent time of entering into the dark chamber / Number of mice not entered into the dark chamber, % / Number of mice taught to CPAR (%): scopolamine 1 mg/kg i.p., Melatonin 5 mg, Memantin 10 mg mono-use; for Number of mice taught to CPAR (%): agents i.p. once a day for 5 days; for Effect on scopolamine amnesia of the skill (in words): summary of Tables 3-4
Experimental: as §1
The CPAR test is the main model for evaluating substance influences on formation and replication of short-time memory in a normal condition and in an abnormal condition, i.e., induced amnesia. The CPAR is the most informative method among the methods that are used today for evaluating efficiency of substances with influence on the CNS of mammals (see, “Manual for Experimental (Pre-Clinical) Studies of New Pharmacological Substances”, 2000). The CPAR (conditioned passive avoidance reflex in a dark, light chamber) was taught to the mice on the basis of electrodermal response according to the method proposed by Cumin et al. (1982) with due regard to the recommendations given by Mondadori et al. (1990). The installation for mice, as produced by Lafayette Instrument Co., USA, was a black chamber with the electrode floor and a white plastic platform that was arranged on the floor in the center of the chamber. The mice, one by one, were put onto the plastic platform. The animals went/jumped down onto the electrode floor where they received an electric current shock, i.e., punishment. Electric current was supplied after the time when an animal stood on the floor with all its four legs. The natural response of the animals is to go back to the current-free or safe platform. […] Tests for memorizing CPAR were conducted in successive time intervals after amnesic action. In a case where an animal went/jumped down onto the platform within 1 minute, it was recorded as having retrograde amnesia of the passive avoidance skill. The compositions were studied in comparison with Melatonin 5 mg (mono-use) and Memantin 10 mg (mono-use), according to the above formula for adapting to animal models.
The compositions under study were dissolved in 5 mL of the solution and, according to the above formula, introduced to the animals intraperitoneally, once a day for 5 days.

[3] = tested on: amnesia caused by acute normobaric hypoxic hypoxia with hypercapnia; test: Open-field method after acute normobaric hypoxic hypoxia with hypercapnia; format: in vivo, mice; details: i.p. once a day for 5 days, Melatonin 5 mg, Memantin 10 mg mono-use
Experimental: as §1
The antiamnestic action of the compositions was also carried out on an model of amnesia caused by acute normobaric hypoxic hypoxia with hypercapnia in a so-called hermetic chamber on white non-linear male mice having a weight of 20-24 Γ with the CPAR development in the animals according to the open-field method. After CPAR teaching the animals were put in the hermetic chamber for 16-18 minutes, depending on manifestation of hypoxia symptoms and weight. This model was reproduced by placing mice, one by one, in glass jars of equal volume that were hermetically sealed. With consumption of oxygen its concentration in the jar air and in the organism lowered and the quantity of carbon dioxide, on the contrary, raised. As the result, acute hypoxic hypoxia with hypercapnia developed in the animals. The animals of the control group were subjected to false hypoxia, that is, the mice were put in glass jars of equal volume that were not closed. The substances under study and the sodium chloride isotonic solution (control) were used in comparison with Melatonin 5 mg (mono-use) and Memantin 10 mg (mono-use) in accordance with the above formula for adapting to animal models by intraperitoneal introduction, before teaching the mice, once a day for 5 days.

Row | Compound | Latent time of entering into the dark chamber ([1]; 1 day after teaching) [s] | Number of mice not entered into the dark chamber, % ([1]; 1 day after teaching) [%] | Latent time of entering into the dark chamber ([1]; 3 days after teaching) [s] | Number of mice not entered into the dark chamber, % ([1]; 3 days after teaching) [%] | Latent time of entering into the dark chamber ([1]; 7 days after teaching) [s] | Number of mice not entered into the dark chamber, % ([1]; 7 days after teaching) [%] | Latent time of entering into the dark chamber ([1]; 10 days after teaching) [s] | Number of mice not entered into the dark chamber, % ([1]; 10 days after teaching) [%] | Number of mice taught to CPAR [1] | Effect on the amnestic action of ECS (in words) [1] | Latent time of entering into the dark chamber ([2]; 1 day after teaching) [s] | Number of mice not entered into the dark chamber, % ([2]; 1 day after teaching) [%] | Latent time of entering into the dark chamber ([2]; 3 days after teaching) [s] | Number of mice not entered into the dark chamber, % ([2]; 3 days after teaching) [%] | Latent time of entering into the dark chamber ([2]; 7 days after teaching) [s] | Number of mice not entered into the dark chamber, % ([2]; 7 days after teaching) [%] | Latent time of entering into the dark chamber ([2]; 10 days after teaching) [s] | Number of mice not entered into the dark chamber, % ([2]; 10 days after teaching) [%] | Number of mice taught to CPAR (%) [2] [%] | Effect on scopolamine amnesia of the skill (in words) [2] | further results
1 | COc1ccc2[nH]cc(CCNC(C)=O)c2c1 [Melatonin, N-acetyl-5-methoxytriptamine] | 108.3 ± 21.7 | 66.7 | 105.6 ± 17.4 | 58.3 | 103.3 ± 21.2 | 58.3 | 103.2 ± 20.6 | 33.3 | 9 | changed the amnestic action | 111.3 ± 15.7 | 58.3 | 107.4 ± 21.2 | 54.5 | 105.8 ± 17.4 | 45.4 | 101.2 ± 20.6 | 36.3 | 66.7 | influenced on amnesia of the skill obtained, but insignificantly | Horizontal motion activity ([3]; 1st day after operation): 6.9 ± 2.3; Inspection of holes ([3]; 1st day after operation): 1.7 ± 0.6; Vertical motion activity ([3]; 1st day after operation): 3.2 ± 1.2; Horizontal motion activity ([3]; 3rd day after operation): 8.2 ± 1.4; Inspection of holes ([3]; 3rd day after operation): 1.9 ± 0.8; Vertical motion activity ([3]; 3rd day after operation): 3.5 ± 0.9; Horizontal motion activity ([3]; 7th day after operation): 8.3 ± 2.8; Inspection of holes ([3]; 7th day after operation): 2.4 ± 0.5; Vertical motion activity ([3]; 7th day after operation): 3.2 ± 1.3; Horizontal motion activity ([3]; 10th day after operation): 8.1 ± 1.7; Inspection of holes ([3]; 10th day after operation): 2.6 ± 2.9; Vertical motion activity ([3]; 10th day after operation): 3.6 ± 2.3
2 | CC12CC3CC(C)(C1)CC(N)(C3)C2 [Memantin] | 104.6 ± 19.2 | 36.3 | 109.5 ± 22.1 | 54.5 | 110.1 ± 18.9 | 63.6 | 109.8 ± 21.1 | 63.6 | 8 | changed the amnestic action | 110.8 ± 25.8 | 50 | 114.4 ± 18.2 | 60 | 111.1 ± 21.2 | 40 | 108.6 ± 18.7 | 40 | 70 | influenced on amnesia of the skill obtained, but insignificantly | Horizontal motion activity ([3]; 1st day after operation): 7.1 ± 2.7; Inspection of holes ([3]; 1st day after operation): 2.1 ± 1.1; Vertical motion activity ([3]; 1st day after operation): 3.7 ± 1.9; Horizontal motion activity ([3]; 3rd day after operation): 8.9 ± 4.9; Inspection of holes ([3]; 3rd day after operation): 2.5 ± 1.1; Vertical motion activity ([3]; 3rd day after operation): 3.3 ± 1.2; Horizontal motion activity ([3]; 7th day after operation): 9.6 ± 3.4; Inspection of holes ([3]; 7th day after operation): 3.0 ± 2.7; Vertical motion activity ([3]; 7th day after operation): 3.7 ± 1.8; Horizontal motion activity ([3]; 10th day after operation): 11.3 ± 1.7; Inspection of holes ([3]; 10th day after operation): 3.2 ± 1.3; Vertical motion activity ([3]; 10th day after operation): 4.1 ± 2.5
